Results taken from patent US20090048258A1, “Amide Compound” (priority 2005, published 2009).
pIC50: −log10 of the molar value. Like-named read-outs stand apart in the source and are kept apart here.

Biological target: T1, Human DGAT1 (Homo sapiens, UniProt O75907)
T1 construct: my translation of the primer: M-G-DYKDDDD-GDRGSSRRR) (N); made in house; host or cells: Sf9 insect cells (recombinant baculovirus BAC-DGAT1, pFASTBAC1); microsome fraction
T1 sequence (O75907 1-488): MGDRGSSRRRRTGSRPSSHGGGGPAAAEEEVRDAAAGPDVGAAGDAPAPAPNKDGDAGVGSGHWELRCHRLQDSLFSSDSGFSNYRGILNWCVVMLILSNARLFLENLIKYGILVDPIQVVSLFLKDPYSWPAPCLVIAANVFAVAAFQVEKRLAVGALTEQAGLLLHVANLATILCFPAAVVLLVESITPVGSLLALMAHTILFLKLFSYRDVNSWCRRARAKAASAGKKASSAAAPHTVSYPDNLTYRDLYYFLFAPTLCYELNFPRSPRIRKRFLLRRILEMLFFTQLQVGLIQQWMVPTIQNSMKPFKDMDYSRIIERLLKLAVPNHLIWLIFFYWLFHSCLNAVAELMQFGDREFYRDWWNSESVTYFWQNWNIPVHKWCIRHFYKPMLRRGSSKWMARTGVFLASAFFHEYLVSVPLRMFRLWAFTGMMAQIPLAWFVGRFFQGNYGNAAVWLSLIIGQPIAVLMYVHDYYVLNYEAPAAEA
Assay: DGAT inhibitory activity: [14C]-triglyceride synthesis by DGAT1 high expression Sf9 microsome
Format: biochemical
Conditions: 25 μM [14C]-Oleoyl-CoA, 32° C., 15 min, read-out: DGAT inhibitory activity (according to IC50)
Procedure: The primer base sequence is shown below.
The PCR reaction was conducted using a KOD-plus kit (TOYOBO). The obtained PCR product was electrophoresed on agarose gel (1%), the DNA fragment amplified by PCR was recovered from the gel, and then digested with restriction enzymes EcoRI and SpeI. […] Furthermore, using BAC-TO-BAC Baculovirus Expression System (Invitrogen), recombinant baculovirus BAC-DGAT1 was prepared.
SF9 cells were sown at 1×10^6 cells/ml on Sf-900II SEM medium (1 L, Invitrogen) containing 10% fetal calf serum (Trace), 50 mg/L gentamicin (Invitrogen) and 0.1% Pluronic F-68 (Invitrogen), and shaking culture was performed using a 2 L volume Erlenmeyer at 27° C., 100 rpm. After culturing for 24 hr, recombinant baculovirus BAC-DGAT1 (6.7 mL) was added, and the mixture was further cultured for 3 days. The culture medium was centrifuged at 2,000 rpm for 5 min to give virus-infected cells. The infected cells were washed with a phosphate buffered saline (Invitrogen), centrifuged under the same conditions, and the cells were preserved at −80° C. The cryopreserved cells were thawed in ice, suspended in buffer A (50 mM Tris buffer (30 mL, pH 7.4) containing 20% glycerol, 0.15 M NaCl) supplemented with Complete Protease Inhibitor (Boehringer), and ruptured 3 times with a Polytron homogenizer (Kinematica) at 20,000 rpm for 30 sec. The Sf9 microsome fractions were obtained by a conventional method and cryopreserved at −80° C. as a DGAT1 high expression Sf9 microsome.
As a DGAT1 reaction buffer, a solution having a composition of 100 mM Tris-HCl (pH 7.5), 250 mM sucrose, 150 mM MgCl2, 0.01% bovine serum albumin (BSA) was used. […] A mixture of 300 μL of chloroform:methanol (=1:2) was added to the reaction mixture to quench the reaction. The reaction mixture was sufficiently mixed and saline (200 μL) was added to partition the mixture between a chloroform layer (lower layer) and an aqueous layer (upper layer). The chloroform layer (50 μL) was spotted on a thin layer chromatography silica gel plate (TLC plate, Merck) and developed with a solvent (n-hexane:diethyl ether:ethyl acetate:acetic acid=74:15:15:1). The developed TLC plate was dried, contacted with a BAS imaging plate (manufactured by FUJIFILM) and measured with BAS2500 (manufactured by FUJIFILM) 16 hr later to numerically show the amount of [^14C]-triglyceride (TG amount) produced during the reaction. The inhibitory rate was calculated by the following formula:
Inhibitory rate (%)=(1−(TG amount in the case with addition of test compound−blank TG amount)/(control TG amount−blank TG amount))×100
The count of the triglyceride produced in the solution reacted without addition of the test compound was used as a “control TG amount”, and the count of the triglyceride produced in the solution reacted without addition of the test compound and DGAT1 high expression Sf9 microsome was used as a “blank TG amount”.

[1] = Table 2, 25 μM dioleoylglycerol
[2] = Table 1, 25 μM dioleoylglycerol

pIC50 [1] | pIC50 [2] | Structure (SMILES)
5.00 to 6.30 | – | COC(=O)c1cccc(-c2cc(NC(=O)CCC(=O)c3ccc4c(c3)CCO4)nc(-c3ccccc3)c2)c1 [Example 170, methyl 3-(2-{[4-(2,3-dihydro-1-benzofuran-5-yl)-4-oxobutanoyl]amino}-6-phenylpyridin-4-yl)benzoate]
5.00 to 6.30 | – | CCOc1ccc(C(=O)CCC(=O)Nc2cc(-c3ccc(N4CCOCC4)cc3)cc(-c3ccccc3)n2)cc1OCC [Example 129, 4-(3,4-diethoxyphenyl)-N-[4-(4-(morpholin-4-yl)phenyl)-6-phenylpyridin-2-yl]-4-oxobutanamide]
6.30 to 7.30 | – | COC(=O)CCc1ccc(-c2cc(NC(=O)CCC(=O)c3ccc4c(c3)CCO4)nc(-c3ccccc3)c2)cc1 [Example 158, methyl 3-[4-(2-{[4-(2,3-dihydro-1-benzofuran-5-yl)-4-oxobutanoyl]amino}-6-phenylpyridin-4-yl)phenyl]propanoate]
5.00 to 6.30 | – | O=C(O)CCc1cccc(-c2cc(NC(=O)CCC(=O)c3ccc4c(c3)CCO4)nc(-c3ccccc3)c2)c1 [Example 172, 3-[3-(2-{[4-(2,3-dihydro-1-benzofuran-5-yl)-4-oxobutanoyl]amino}-6-phenylpyridin-4-yl)phenyl]propanoic acid]
6.30 to 7.30 | – | CCOc1ccc(C(=O)CCC(=O)Nc2cc(-c3ccccc3)c3ccc(/C=C/C(=O)OC(C)(C)C)cc3n2)cc1OCC [Example 82, tert-butyl (2E)-3-(2-{[4-(3,4-diethoxyphenyl)-4-oxobutanoyl]amino}-4-phenylquinoline-7-yl)acrylate]
≥ 8.00 | – | CCOc1ccc(C(=O)CCC(=O)Nc2cc(-c3ccccc3OC)cc(-c3ccccc3)n2)cc1OCC [Example 146, 4-(3,4-diethoxyphenyl)-N-[4-(2-methoxyphenyl)-6-phenylpyridin-2-yl]-4-oxobutanamide]
6.30 to 7.30 | – | CCOc1ccc(C(=O)CCC(=O)Nc2cc(-c3cccc(CCCO)c3)cc(-c3ccccc3)n2)cc1OCC [Example 137, 4-(3,4-diethoxyphenyl)-N-{4-[3-(3-hydroxypropyl)phenyl]-6-phenylpyridin-2-yl}-4-oxobutanamide]
6.30 to 7.30 | – | CCOC(=O)c1c(NC(=O)CCC(=O)c2ccc(OCC)c(OCC)c2)sc(Cc2ccccc2)c1-c1ccccc1 [Example 96, ethyl 5-benzyl-2-{[4-(3,4-diethoxyphenyl)-4-oxobutanoyl]amino}-4-phenylthiophene-3-carboxylate]
6.30 to 7.30 | – | CCOc1ccc(C(=O)CCC(=O)Nc2cc(-c3ccc(OCCCN(C)C)cc3)c3ccccc3n2)cc1OCC [Example 93, 4-(3,4-diethoxyphenyl)-N-(4-{4-[3-(dimethylamino)propoxy]phenyl}quinolin-2-yl)-4-oxobutanamide]
5.00 to 6.30 | – | O=C(O)/C=C/c1cccc(-c2cc(NC(=O)CCC(=O)c3ccc4c(c3)CCO4)nc(-c3ccccc3)c2)c1 [Example 174, (2E)-3-[3-(2-{[4-(2,3-dihydro-1-benzofuran-5-yl)-4-oxobutanoyl]amino)-6-phenylpyridin-4-yl)phenyl]acrylic acid]
7.30 to 8.00 | – | CCOc1ccc(C(=O)CCC(=O)Nc2cc(-c3cccc(O)c3)cc(-c3ccccc3)n2)cc1OCC [Example 134, 4-(3,4-diethoxyphenyl)-N-[4-(3-hydroxyphenyl)-6-phenylpyridin-2-yl]-4-oxobutanamide]
6.30 to 7.30 | – | CCOc1ccc(C(=O)CCC(=O)Nc2cc(-c3ccccc3)c3ccc(/C=C/C(=O)O)cc3n2)cc1OCC [Example 83, (2E)-3-(2-{[4-(3,4-diethoxyphenyl)-4-oxobutanoyl]amino}-4-phenylquinoline-7-yl)acrylic acid]

Continued, compound first:

Structure (SMILES) | pIC50 [1] | pIC50 [2]
CCc1cc(C(=O)CCC(=O)Nc2cc(-c3ccccc3)c(Cc3ccccc3)s2)ccc1OC [Example 55, N-(5-benzyl-4-phenyl-2-thienyl)-4-(3-ethyl-4-methoxyphenyl)-4-oxobutanamide] | – | 6.30 to 7.30
CCOc1ccc(C(=O)CCC(=O)Nc2ccc(CN3CCOCC3)c(-c3ccccc3)c2)cc1OCC [Example 39, 4-(3,4-diethoxyphenyl)-N-(6-(morpholin-4-ylmethyl)biphenyl-3-yl]-4-oxobutanamide] | – | 5.00 to 6.30
CCOc1ccc(C(=O)CCC(=O)Nc2nc(-c3ccccc3)c(Cc3ccccc3)s2)cc1OCC [Example 3, N-(5-benzyl-4-phenyl-1,3-thiazol-2-yl)-4-(3,4-diethoxyphenyl)-4-oxobutanamide] | – | ≥ 8.00
CCOc1ccc(C(=O)CCC(=O)Nc2cc(-c3ccccc3)nc(-c3ccccc3)n2)cc1OCC [Example 14, 4-(3,4-diethoxyphenyl)-N-(2,6-diphenylpyrimidin-4-yl)-4-oxobutanamide] | – | 6.30 to 7.30
CCOc1ccc(C(=O)CCC(=O)Nc2cc(-c3ccccc3)c(Cc3ccccc3)s2)cc1 [Example 44, N-(5-benzyl-4-phenyl-2-thienyl)-4-(4-ethoxyphenyl)-4-oxobutanamide] | – | 6.30 to 7.30
CCCc1ccc(C(=O)CCC(=O)Nc2nc(-c3ccccc3)c(Cc3ccccc3)s2)cc1 [Example 26, N-(5-benzyl-4-phenyl-1,3-thiazol-2-yl)-4-oxo-4-(4-propylphenyl)butanamide] | – | 6.30 to 7.30
CCOc1cc(C)c(C(=O)CCC(=O)Nc2cc(-c3ccccc3)c(Cc3ccccc3)s2)cc1OCC [Example 50, N-(5-benzyl-4-phenyl-2-thienyl) -4-(4,5-diethoxy-2-methylphenyl)-4-oxobutanamide] | – | 7.30 to 8.00
CCOC(=O)/C=C/c1ccc(Cc2sc(NC(=O)CCC(=O)c3ccc(OCC)c(OCC)c3)cc2-c2ccccc2)cc1 [Example 51, ethyl (2E)-3-{4-[(5-{[4-(3,4-diethoxyphenyl)-4-oxobutanoyl]amino}-3-phenyl-2-thienyl)methyl]phenyl}acrylate] | – | 6.30 to 7.30
CCOc1ccc(C(=O)CCC(=O)Nc2cnn(Cc3ccccc3)c2-c2ccccc2)cc1OCC [Example 21, N-(1-benzyl-5-phenyl-1H-pyrazol-4-yl)-4-(3,4-diethoxyphenyl)-4-oxobutanamide] | – | 5.00 to 6.30
CCOc1ccc(C(=O)CCC(=O)Nc2cc(-c3ccccc3)c(Cc3ccc(Br)cc3)s2)cc1OCC [Example 47, N-[5-(4-bromobenzyl)-4-phenyl-2-thienyl]-4-(3,4-diethoxyphenyl)-4-oxobutanamide] | – | 7.30 to 8.00
COCOc1ccc(C(=O)CCC(=O)Nc2nc(-c3ccccc3)c(Cc3ccccc3)s2)cc1 [Example 32, N-(5-benzyl-4-phenyl-1,3-thiazol-2-yl)-4-oxo-4-[4-(methoxymethoxy)phenyl]butanamide] | – | 7.30 to 8.00
CCOc1ccc(C(=O)CCC(=O)Nc2cc(-c3ccccc3)sc2-c2ccccc2)cc1OCC [Example 18, 4-(3,4-diethoxyphenyl)-N-(2,5-diphenyl-3-thienyl)-4-oxobutanamide] | – | 6.30 to 7.30
CCOc1ccc(C(=O)CCC(=O)Nc2cc(-c3ccccc3)sc2-c2ccccc2)cc1 [Example 60, N-(2,5-diphenyl-3-thienyl)-4-(4-ethoxyphenyl)-4-oxobutanamide] | – | 5.00 to 6.30
CCOc1cc(NC(=O)CCC(=O)c2ccc(OCC)c(OCC)c2)nc(-c2ccccc2)c1 [Example 40, 4-(3,4-diethoxyphenyl)-N-(4-ethoxy-6-phenylpyridin-2-yl)-4-oxobutanamide] | – | 6.30 to 7.30
